The assay concerns microscopic organisms. The experiment in a line: Antimicrobial effect of ICG under irradiation with light (photodynamic), infections on gingiva and teeth. Conditions: more particularly laser light, wavelength 780 to 830 nm.

Consider `CC1(C)C(/C=C/C=C/C=C/C=C2\N(CCCCS(=O)(=O)O)c3ccc4ccccc4c3C2(C)C)=[N+](CCCCS(=O)(=O)[O-])c2ccc3ccccc3c21` [ICG, Indocyanine green], for which the “effect against microscopic organisms, more particularly an antimicrobial effect” value was “outstanding effect”.

These data come from US20120172408A1, “ACTIVE INGREDIENT COMPRISING INDOCYANINE GREEN AND/OR INFRACYANINE GREEN” (A.R.C. LASER GMBH, priority 2011, published 2012).
